{"source": "patent US11149047B2", "about": "“Aryl imidazoles for treatment of cancer” (Aptose Biosciences Inc., priority 2017, dated 2021)", "key": {"[1]": {"tested_on": "MV4-11, EOL-1, and KG-1 AML cells", "test": "Flow cytometry for apoptosis (Annexin V / PI)", "format": "cell-based", "details": "all cell lines, FIG. 10A", "description": "Cells were treated as described above. To determine apoptosis, cells were stained with FITC-Annexin V and propidium iodide (PI; BD Pharmingen, catalog #556570) and then analyzed on BD Accuri C6 flow cytometer. To measure DNA synthesis and phases of cell cycle, treated cells were stained with 5-ethynyl-2′-deoxyuridine (Edu) Alexa Fluor 488 (Thermo Fisher Scientific, catalog #C10425) and PI (PI/RNase A staining solution, BD Biosciences, catalog #550825). The dead cells were excluded from analysis by using Live/Dead Fixable Far Red Dead Cell Stain Kit (Thermo Fisher Scientific, catalog #L34973). Staining was performed as per the manufacturers' instructions.\nTo investigate the mechanism by which COMPOUND I causes cell death, MV4-11, EOL-1, and KG-1 AML cells were treated with or without COMPOUND I and subjected to apoptotic marker detection by flowcytometry and Western blotting. Cells were stained with PI and Annexin V to distinguish between live (Annexin V and PI negative), early apoptotic (Annexin V positive and PI negative), late apoptotic (Annexin V and PI positive), and dead (Annexin V negative and PI positive) cells. […] COMPOUND I induced accumulation of c-PARP1 in a concentration- and time dependent manner that paralleled apoptosis induction as measured by Annexin V/PI staining (FIGS. 10B-C; FIG. 17B). […]"}, "Raji cells": {"tested_on": "Raji cells", "test": "Cellular pharmacology: intracellular accumulation and efflux by LC-MS/MS", "format": "in vitro ADME, human", "description": "Cells exposed to COMPOUND I or Fe(COMPOUND I)3 were homogenized in acetonitrile containing 5 ng of a deuterated COMPOUND I standard. Samples were analyzed at the UCSD Molecular Mass Spectrometry Facility employing an Agilent 1260 liquid chromatograph (LC) system coupled with a Thermo LCQdeca mass spectrometer using positive ion mode electrospray ionization (ESI) as the ion source. The ESI ion source voltage was set at 5 kV, with sheath gas flow rate of 80 units, auxiliary gas flow rate of 20 units, and capillary temperature of 250° C., respectively. A Phenomenex Kinetex Biphenyl column (ID 2.1 mm×length 50 mm, particle size 2.6 μm) was utilized for LC separation using water with 0.1% formic acid as the mobile phase A and acetonitrile with 0.1% formic acid as the mobile phase B. The LC flow rate was set at 0.30 mL/min. The LC gradient increased from 5% mobile phase B to 95% mobile phase B in 10 minutes, held at 95% B for 2 minutes, returned to 5% B in 1 minute, and then held at 5% B for 6 minutes. […] Selected reaction monitoring (SRM) mode was used to acquire the m/z 353 and m/z 359 fragmental peaks. The SRM peak area ratio (COMPOUND I/COMPOUND I-d6) related to the amount of spiked COMPOUND I-d6 was used for the quantification of COMPOUND I and Fe(COMPOUND I)3 in the samples. The same column, gradient and flow rate were used for detection of Fe(COMPOUND I)3 which was detected using an Agilent 1100 HPLC and Orbitrap XL (Thermo) mass spectrometer employing a Thermo IonMax ESI interface. The Fe(COMPOUND I)3 eluted around 11.5 minutes with these conditions. A 10:1 flow split was used for the eluent flow rate of 0.3 mL/min, so that approximately 0.030 mL/min was introduced into the ESI after the split. […]\nFor this reason, Raji Burkitt's lymphoma cells were selected for study of the cellular pharmacology of COMPOUND I. The intracellular accumulation of COMPOUND I in the Raji cells was quantified by liquid chromatography tandem mass spectroscopy (LC-MS/MS). […]"}, "KG-1 AML cells": {"tested_on": "KG-1 AML cells", "test": "Uptake and efflux assay by mass spectrometry", "format": "in vitro ADME", "details": "exposed 1 or 6 hours, then drug-free media", "description": "Cells exposed to COMPOUND I were homogenized in acetonitrile containing 5 ng of deuterated COMPOUND I standard. Samples were analyzed at the UCSD Molecular Mass Spectrometry Facility employing an Agilent 1260 liquid chromatograph (LC) system coupled with a Thermo LCQdeca mass spectrometer using positive ion mode electrospray ionization as the ion source.\nMeasurement of the kinetics of uptake and efflux of COMPOUND I in KG-1 AML cells determined by mass spectrometry indicated a gradual approach to steady state and a rapid initial efflux, but a very prolonged terminal efflux (FIGS. 20A and 20B). When KG-1 cells were exposed to COMPOUND I for either 1 or 6 hours and then placed in drug-free media, the efflux pattern consisted of a rapid phase occurring during the first 30 minutes followed by a prolonged terminal phase, such that significant amounts of COMPOUND I were retained in KG-1 cells for longer than 24 hours. […] (FIGS. 20C and 20D)."}}}
{"compound": "Cc1[nH]c2ccc(F)cc2c1-c1nc2c3cccnc3c3ncccc3c2[nH]1", "note": "[COMPOUND I, 2-(5-fluoro-2-methyl-1H-indol-3-yl)-1H-imidazo[4,5-f][1,10]phenanthroline]", "values": [{"measurement": "apoptotic cells at 24 hours", "setting": "[1]", "result": "concentration-dependent increase in apoptotic cells"}, {"measurement": "time at which cellular content approaches steady-state", "setting": "Raji cells; Raji cells, FIG. 6A", "result": "~6", "unit": "h"}, {"measurement": "Rate of efflux over first 2 hours", "setting": "Raji cells; Raji cells, mean ± SEM, n = 6", "result": "−0.19 ± 0.025", "unit": "log fmole/10^7 cells/h"}, {"measurement": "intracellular Zn chelate", "setting": "Raji cells; cells exposed to COMPOUND I", "result": "a Zn chelate was not detectable"}, {"measurement": "duration of rapid efflux phase", "setting": "KG-1 AML cells", "result": 30, "unit": "min"}, {"measurement": "retention of significant amounts in cells", "setting": "KG-1 AML cells", "result": "> 24", "unit": "h"}]}
